Measurements: US4764460A, “Recombinant sigma NS protein” (priority 1985, dated 1988)
Where two headings read alike, the source gives them in different places.

Molecular target: T1, rσNS (Reovirus type 3, UniProt P03526)
T1 construct: made in house; host or cells: E. coli RR1 (pRK248cIts) carrying pRC23-S3
Assay: Inhibition of binding of reovirus ssRNA to rσNS by ribonucleotides
Settings: for remaining activity at 10000 µM: ribonucleotide 10 mM
Description: In a preliminary experiment it was noticed that the capacity of rσNS to bind (ss) RNAs was abolished if all four ribonucleotides were included in the reaction mixture. The ability of each of the four ribonucleotides (ATP, CTP, GTP, and UTP) to inhibit binding was then examined. […] With the amount of rσNS used in these experiments (130 ng per reaction) GTP inhibition was evident between 0.5 mM and 1 mM (Table 3). The other three ribonucleotides caused little interference with binding even at concentrations of 10 mM (Table 3). This was an important observation for developing σNS as a concentrator of (ss) RNA in test samples to be used in hybridization probe assays. […] The isolated (ss) RNA can then be treated with the hybridization probe in a conventional manner. Obviously since the binding of the σNS protein with the (ss) RNA is non-specific, the specificity of the assay is fully determined by the specificity of the hybridization probe for the desired RNA being assayed.

[1] = read-out: % of [32P]-labeled reovirus ssRNA retained on nitrocellulose membrane, expressed as percentage of control, EXP. 1, ribonucleotide 2 mM (mixture 2 mM each), 130 ng rσNS per reaction
[2] = read-out: % of [32P]-labeled reovirus ssRNA retained on nitrocellulose membrane, expressed as percentage of control, EXP. 2

T1 sequence (P03526 whole entry): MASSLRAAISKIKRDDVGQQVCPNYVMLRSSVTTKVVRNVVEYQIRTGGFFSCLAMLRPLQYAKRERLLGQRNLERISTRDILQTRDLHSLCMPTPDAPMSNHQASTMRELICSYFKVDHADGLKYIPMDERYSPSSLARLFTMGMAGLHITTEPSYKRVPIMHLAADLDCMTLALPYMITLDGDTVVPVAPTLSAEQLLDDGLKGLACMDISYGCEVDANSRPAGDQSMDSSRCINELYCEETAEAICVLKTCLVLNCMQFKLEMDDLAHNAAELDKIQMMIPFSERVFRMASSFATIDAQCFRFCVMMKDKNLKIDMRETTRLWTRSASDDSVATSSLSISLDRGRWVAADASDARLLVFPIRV

Structure (SMILES) | remaining activity at 2000 µM [1] [%] | remaining activity at 10000 µM [2] [%] | remaining activity at 100 µM (read-out: % of [32P]-labeled reovirus ssRNA retained on nitrocellulose membrane, expressed as percentage of control, EXP. 2, ribonucleotide 0.1 mM) [%] | remaining activity at 500 µM (read-out: % of [32P]-labeled reovirus ssRNA retained on nitrocellulose membrane, expressed as percentage of control, EXP. 2, ribonucleotide 0.5 mM) [%] | remaining activity at 1000 µM (read-out: % of [32P]-labeled reovirus ssRNA retained on nitrocellulose membrane, expressed as percentage of control, EXP. 2, ribonucleotide 1 mM) [%] | remaining activity at 2000 µM (read-out: % of [32P]-labeled reovirus ssRNA retained on nitrocellulose membrane, expressed as percentage of control, EXP. 2, ribonucleotide 2 mM) [%]
Nc1ncnc2c1ncn2[C@@H]1O[C@H](COP(=O)(O)OP(=O)(O)OP(=O)(O)O)[C@@H](O)[C@H]1O [ATP] | 61 | 95 | – | – | – | –
Nc1ccn([C@@H]2O[C@H](COP(=O)(O)OP(=O)(O)OP(=O)(O)O)[C@@H](O)[C@H]2O)c(=O)n1 [CTP] | 58 | 81 | – | – | – | –
Nc1nc2c(ncn2[C@@H]2O[C@H](COP(=O)(O)OP(=O)(O)OP(=O)(O)O)[C@@H](O)[C@H]2O)c(=O)[nH]1 [GTP] | 5 | 0 | 93 | 95 | 29 | 15
O=c1ccn([C@@H]2O[C@H](COP(=O)(O)OP(=O)(O)OP(=O)(O)O)[C@@H](O)[C@H]2O)c(=O)[nH]1 [UTP] | 59 | 68 | – | – | – | –
